In publication PMC11118832 (Biomolecules, 2024):
Square brackets hold non-standard residues; d marks the D form. Ends that are not written are not given here. Peptide text beside a SMILES is read from it. Phe(4-NH2) = Nc1ccc(C[C@H](N)C(=O)O)cc1; 1Nal = N[C@@H](Cc1cccc2ccccc12)C(=O)O; pS = N[C@@H](COP(=O)(O)O)C(=O)O; hLeu = CC(C)CC[C@H](N)C(=O)O; Nle = CCCC[C@H](N)C(=O)O; Orn = NCCC[C@H](N)C(=O)O

Experiments:
PD-1/PD-L1 = molecular target: T1, PD-1/PD-L1 (Homo sapiens, UniProt Q15116); assay: In vitro time-resolved FRET PD-1/PD-L1 binding assay (CisBio kit); settings: CisBio PD-1/PD-L1 binding kit, TR FRET, 96-well; for EC50: serial dilutions in triplicate, NI = no inhibition at maximum concentration tested (* 5 μM, ** 50 μM), read-out: EC50 (Supplementary Table S1; inhibition of PD-1/PD-L1 binding by in vitro TR-FRET assay); for IC50: 4-fold serial dilutions in triplicate, freshly dissolved peptides, read-out: IC50, inhibition of PD-1/PD-L1 binding (TR FRET assay)
T1 construct: this kit uses ectodomains of PD-1 and PD-L1 that are expressed with orthogonal fusion tags (Tag-1 and Tag-2); purchased CisBio (currently Perkin-Elmer, Bedford, MA)
Protocol: Commercial PD-1/PD-L1 binding assay kit (CisBio, currently Perkin-Elmer, Bedford, MA) for time resolve fluorescent energy transfer (FRET) was used to assess peptides binding to PD-1. The assay for peptide screening was performed in a 96-well format (normal pressure), starting with 4-fold serial dilutions of each peptide in triplicate. No-peptide triplicate wells were used to assess fluorescent energy transfer in the absence of inhibition, and no-PD-1/PD-L1 triplicate wells were used to assess the background fluorescent energy transfer in the absence of PD-1/PD-L1 complexes. More detailed concentration dependences were obtained for selected peptides. Only freshly dissolved peptides were used in the assay. Various QSAR (quantitative structure activity relationship) hypotheses were tested by synthesizing batches of 10–12 peptides. In total, over one hundred candidates in ten iterations were screened for their ability to inhibit in vitro PD-1/PD-L1 binding using the commercial PD-1/PD-L1 binding assay kit (CisBio, currently Perkin-Elmer). Briefly, this kit uses ectodomains of PD-1 and PD-L1 that are expressed with orthogonal fusion tags (Tag-1 and Tag-2). It also includes two antibodies to selectively interact with these tags. The antibody against one tag is labeled with fluorescent moiety, which serves as a donor, while the other antibody is labeled with fluorescent moiety, which serves as an acceptor in fluorescent resonance energy transfer (FRET). When the complex is formed and probed with both anti-Tag-1 and anti-Tag-2 antibodies, donor and acceptor are sufficiently close, and FRET can be detected in a time-resolved (TR) manner. Inhibitors of PD-1/PD-L1 interactions prevent complex formation, leading to a decrease in TR FRET in a concentration-dependent manner, as shown in Figure 2 for four representative peptide inhibitors. Initial fourfold dilutions are exemplified by data for peptides B5.11 and B5.6 (panels A and B); examples of the more detailed follow-up concentration dependences are shown for peptides B2.4 and B2.22 (panels C and D). The potency of the inhibitors is then characterized by IC50, a concentration that inhibits TR FRET by 50%, allowing for a facile comparison of different inhibitors (Figure 2E).

[1] = pH 6.4
Protocol: We ran chemical shift mapping (CSM) experiments for four peptides, B5.11, B3.15, B5.6, and B2.22. […] CSM ^15N-HSQC experiments with unlabeled peptides (B5.11, B3.15, and B5.6) were performed on uniformly ^15N-labeled PD-1 in a buffer (two series, pH 6.4 and 6.7) containing 25 mM NaPO4, 100 mM NaCl, 1 mM DSS, 10% D2O, and 3% dDMSO (necessary to make peptides stocks). Spectra were recorded at 25 °C on a Varian INOVA 600 MHz spectrometer equipped with an inverse triple-resonance cold probe. Spectra were processed using NMRPipe (11.2 rev 2022.346.12.26) [35] and analyzed with CCPN Analysis [36] made available through NMRBox. Assignments for PD-1 were adopted from BMRB-18908. The chemical shift perturbations were calculated using the following equation [37]: Δδ=0.5(δ^2H+(αδN)^2) where the scaling factor, α, was set to 0.15.

EC50 (PD-1/PD-L1) [µM] | IC50 (PD-1/PD-L1) [µM] | Molecule | Solubility / precipitation in NMR buffer [1]
> 50 |  | Ac-LVDVGAAWDYKY-NH2 [B3.16] | 
> 5 |  | Ac-NVIVGAAWDYKY-NH2 [B7.7] | 
> 5 |  | Ac-DAIDGAAWDYKY-NH2 [B8.2] | 
> 5 |  | Ac-DVIVGAAWDYKYLT-NH2 [B7.1] | 
0.13 | 0.13 | Ac-DVIVGAAWDYKY-NH2 [B3.15] | 
> 5 |  | Ac-DVIDGAAWDYKYLT-NH2 [B7.9] | 
> 5 |  | Ac-DVIYGAAWDYKYLT-NH2 [B7.11] | 
> 5 |  | Ac-DGAAWDYKY-NH2 [B9.0] | 
> 5 |  | CCCC[C@H](NC(C)=O)C(=O)N[C@H](C(=O)N[C@@H](Cc1c[nH]c2ccccc12)C(=O)N[C@H](C(=O)NCC(=O)N[C@@H](C)C(=O)N[C@@H](C)C(=O)N[C@@H](Cc1c[nH]c2ccccc12)C(=O)N[C@@H](CC(=O)O)C(=O)N[C@@H](CCCNC(=N)N)C(=O)N[C@@H](CCCCN)C(=O)N[C@@H](Cc1ccc(O)cc1)C(N)=O)C(C)C)C(C)C [B4.12] (Ac-[Nle]VWVGAAWDRKY-NH2) | 
> 5 |  | CCCC[C@H](NC(=O)[C@@H](NC(=O)[C@@H](N)CCCNC(=N)N)C(C)C)C(=O)N[C@H](C(=O)N[C@H](C(=O)N[C@H](C(=O)NCC(=O)N[C@@H](C)C(=O)N[C@@H](C)C(=O)N[C@@H](Cc1c[nH]c2ccccc12)C(=O)N[C@@H](CC(=O)O)C(=O)N[C@@H](Cc1ccc(N)cc1)C(=O)N[C@@H](CCCCN)C(=O)N[C@@H](Cc1ccc(O)cc1)C(=O)O)C(C)C)[C@@H](C)CC)C(C)C [B4.10] (H-RV[Nle]VIVGAAWD[Phe(4-NH2)]KY-OH; N-terminus and C-terminus assumed) | 
> 5 |  | Ac-DVIDGAAWDYKYLQ-NH2 [B7.8] | 
> 5 |  | Ac-NVIDGAAWDYKY-NH2 [B8.5] | 
> 50 |  | Ac-LVWVGAAWDYKY-NH2 [B3.2] | 
> 5 |  | Ac-DVIDGADWDYKY-NH2 [B8.20] | 
> 5 |  | CC(=O)N[C@@H](CCC(C)C)C(=O)N[C@H](C(=O)N[C@@H](Cc1c[nH]c2ccccc12)C(=O)N[C@H](C(=O)NCC(=O)N[C@@H](C)C(=O)N[C@@H](CCCN)C(=O)N[C@@H](Cc1c[nH]c2ccccc12)C(=O)N[C@@H](CC(=O)O)C(=O)N[C@@H](CCCNC(=N)N)C(=O)N[C@@H](CCCCN)C(=O)N[C@@H](Cc1ccc(O)cc1)C(N)=O)C(C)C)C(C)C [B3.23] (Ac-[hLeu]VWVGA[Orn]WDRKY-NH2) | 
> 5 |  | CC[C@H](C)[C@H](NC(=O)[C@@H](NC(=O)[C@H](CC(C)C)NC(C)=O)C(C)C)C(=O)N[C@H](C(=O)NCC(=O)N[C@@H](C)C(=O)N[C@@H](C)C(=O)N[C@@H](Cc1c[nH]c2ccccc12)C(=O)N[C@@H](COP(=O)(O)O)C(=O)N[C@@H](Cc1ccc(O)cc1)C(=O)N[C@@H](CCCCN)C(=O)N[C@@H](Cc1ccc(O)cc1)C(N)=O)C(C)C [B6.2] (Ac-LVIVGAAW[pS]YKY-NH2) | 
> 5 |  | Ac-DVLDGAAWDYKY-NH2 [B8.13] | 
> 5 |  | Ac-DIIDGAAWDYKY-NH2 [B8.16] | 

The remaining lines, values behind:

Molecule | EC50 (PD-1/PD-L1) [µM] | IC50 (PD-1/PD-L1) [µM] | Solubility / precipitation in NMR buffer [1]
Ac-RVLVIVGAAWDYKY-NH2 [B2.1] | 30 |  | 
Ac-RVKVIVGAAWDYKY-NH2 [B2.11] | 55 |  | 
CC(=O)N[C@@H](CCCNC(=N)N)C(=O)N[C@H](C(=O)N[C@@H](CCC(C)C)C(=O)N[C@H](C(=O)N[C@@H](CCC(C)C)C(=O)N[C@H](C(=O)NCC(=O)N[C@@H](C)C(=O)N[C@@H](C)C(=O)N[C@@H](Cc1c[nH]c2ccccc12)C(=O)N[C@@H](CC(=O)O)C(=O)N[C@@H](Cc1ccc(O)cc1)C(=O)N[C@@H](CCCCN)C(=O)N[C@@H](Cc1ccc(O)cc1)C(N)=O)C(C)C)C(C)C)C(C)C [B2.27] (Ac-RV[hLeu]V[hLeu]VGAAWDYKY-NH2) | 1.8 |  | 
Ac-DVIVGASWDYKY-NH2 [B7.3] | > 5 |  | 
CCCC[C@H](NC(=O)[C@@H](NC(=O)[C@@H](N)CCCNC(=N)N)C(C)C)C(=O)N[C@H](C(=O)N[C@H](C(=O)N[C@H](C(=O)NCC(=O)N[C@@H](C)C(=O)N[C@@H](C)C(=O)N[C@@H](Cc1c[nH]c2ccccc12)C(=O)N[C@@H](CC(=O)O)C(=O)N[C@@H](Cc1ccc(O)cc1)C(=O)N[C@@H](CCCCN)C(=O)N[C@@H](Cc1ccc(O)cc1)C(=O)O)C(C)C)[C@@H](C)CC)C(C)C [B4.7] (H-RV[Nle]VIVGAAWDYKY-OH; N-terminus and C-terminus assumed) | > 5 |  | 
CCCC[C@H](NC(C)=O)C(=O)N[C@H](C(=O)N[C@@H](CC(=O)O)C(=O)N[C@H](C(=O)N[C@H](C(=O)N[C@H](C(=O)NCC(=O)N[C@@H](C)C(=O)N[C@@H](C)C(=O)N[C@@H](Cc1c[nH]c2ccccc12)C(=O)N[C@@H](CC(=O)O)C(=O)N[C@@H](Cc1ccc(O)cc1)C(=O)N[C@@H](CCCCN)C(=O)N[C@@H](Cc1ccc(O)cc1)C(N)=O)C(C)C)[C@@H](C)CC)C(C)C)C(C)C [B5.5] (Ac-[Nle]VDVIVGAAWDYKY-NH2) | > 5 |  | 
Ac-DVIDGAAWDRKY-NH2 [B8.22] | > 5 |  | 
Ac-RVLVIVGAAWDYKR-NH2 [B2.7] | 55 |  | 
CCCC[C@H](N)C(=O)N[C@H](C(=O)N[C@@H](Cc1c[nH]c2ccccc12)C(=O)N[C@H](C(=O)NCC(=O)N[C@@H](C)C(=O)N[C@@H](C)C(=O)N[C@@H](Cc1c[nH]c2ccccc12)C(=O)N[C@@H](CC(=O)O)C(=O)N[C@@H](CCCNC(=N)N)C(=O)N[C@@H](CCCCN)C(=O)N[C@@H](Cc1ccc(O)cc1)C(=O)O)C(C)C)C(C)C [B4.13] (H-[Nle]VWVGAAWDRKY-OH; N-terminus and C-terminus assumed) | > 5 |  | 
CC[C@H](C)[C@H](NC(=O)[C@@H](NC(=O)[C@H](CC(=O)O)NC(C)=O)C(C)C)C(=O)N[C@H](C(=O)NCC(=O)N[C@@H](C)C(=O)N[C@@H](C)C(=O)N[C@@H](Cc1cccc2ccccc12)C(=O)N[C@@H](CC(=O)O)C(=O)N[C@@H](Cc1ccc(O)cc1)C(=O)N[C@@H](CCCCN)C(=O)N[C@@H](Cc1ccc(O)cc1)C(N)=O)C(C)C [B6.1] (Ac-DVIVGAA[1Nal]DYKY-NH2) | > 5 |  | 
RVLVIVGAAWDYKY [B2.28] | 11 |  | 
CCCC[C@H](NC(=O)[C@@H](NC(=O)[C@@H](N)CCCNC(=N)N)C(C)C)C(=O)N[C@H](C(=O)N[C@@H](Cc1c[nH]c2ccccc12)C(=O)N[C@H](C(=O)NCC(=O)N[C@@H](C)C(=O)N[C@@H](C)C(=O)N[C@@H](Cc1c[nH]c2ccccc12)C(=O)N[C@@H](CC(=O)O)C(=O)N[C@@H](Cc1ccc(O)cc1)C(=O)N[C@@H](CCCCN)C(=O)N[C@@H](Cc1ccc(O)cc1)C(=O)O)C(C)C)C(C)C [B4.4] (H-RV[Nle]VWVGAAWDYKY-OH; N-terminus and C-terminus assumed) | > 5 |  | 
Ac-RSMISYGGADDYK-NH2 [B1.1] | 24 |  | 
Ac-IVGAAWDYKY-NH2 [B3.1] | > 50 |  | 
Ac-RVLVWVGAAWDYKY-NH2 [B2.18] | 1 |  | 
CCCC[C@H](NC(C)=O)C(=O)N[C@H](C(=O)N[C@H](C(=O)N[C@H](C(=O)NCC(=O)N[C@@H](C)C(=O)N[C@@H](C)C(=O)N[C@@H](Cc1c[nH]c2ccccc12)C(=O)N[C@@H](CC(=O)O)C(=O)N[C@@H](CCCNC(=N)N)C(=O)N[C@@H](CCCCN)C(=O)N[C@@H](Cc1ccc(O)cc1)C(N)=O)C(C)C)[C@@H](C)CC)C(C)C [B4.3] (Ac-[Nle]VIVGAAWDRKY-NH2) | > 5 |  | 
Ac-LVIVGAAWDYKY-NH2 [B2.22] | 0.7 | 0.7 | too hydrophobic and precipitated totally out of the solution
